For assay [1], the system named is HCT116 MTAP-deleted cell lines. Put plainly: Cell viability assay (CellTiter-Glo, 7 days), HCT116 MTAP-deleted. The following applies: Homo sapiens, HCT-116, HCT116 MTAP-deleted, class symbols, read-out: CC50. It counts as cell-based. The gist of the method: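 PRMT5 inhibitors were serially diluted in DMSO and acoustically spotted as dose-response series into plates before cell seeding. Cells were grown with compound for 7 days at 37 °C, 5% CO2, 90% humidity, then viability was read by CellTiter-Glo luminescence and reported as CC50.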

Assay [2] deals with Symmetric Di-methyl Arginine (SDMA) signal (PRMT5 inhibition) in HCT116 MTAP-deleted cells. Briefly: Symmetric di-methyl arginine image-based high content screen assay (SDMA assay), HCT116 MTAP-deleted. Format: cell-based. The following applies: for EC50: Homo sapiens, HCT-116, HCT116 MTAP-deleted, class symbols. The method, boiled down: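 HCT116 WT and MTAP-deleted cells (800/well, RPMI 1640 + 10% FBS) treated with compound 3 days at 37 °C; formalin-fixed, stained with anti-SDMA antibody/Alexa 488 plus DAPI. Mean SDMA intensity per DAPI-defined cell imaged; EC50 from 4-parameter logistic fit.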

[3] abbreviates: HCT116 WT versus HCT116 MTAP-deleted.
Setting [4] is: HCT116 WT vs HCT116 MTAP-deleted.

Where two headings read alike, the source gives them in different places.

Usually CC50 stands for the concentration giving 50% cytotoxicity. For orientation: EC50 means the concentration at which the effect is half-maximal. As to `Nc1nc2ccc(C(=O)N(Cc3ccc(C(F)(F)F)cn3)N3CCOCC3)cc2c2cncn12` [Fa-3, 5-amino-N-morpholino-N-((5-(trifluoromethyl)pyridin-2-yl)methyl)imidazo[1,5-c]quinazoline-9-carboxamide], the CC50 in assay [1] (cell viability) is greater than 1000 nM. The EC50 selectivity in assay [2] (setting [3]) was 22. In addition, the EC50 in assay [2] was greater than 5 nM.
Regarding `CN(C(=O)c1cc2c(cc1F)nc(N)c1cncn12)[C@@H](c1ccc(C(F)(F)F)cc1F)C(F)F` [Fb-8, (S)-4-amino-N-(2,2-difluoro-1-(2-fluoro-4-(trifluoromethyl)phenyl)ethyl)-7-fluoro-N-methylimidazo[1,5-a]quinoxaline-8-carboxamide], in assay [1] (cell viability), the half-maximal cytotoxic concentration (CC50) is less than 100 nM. Moreover, the EC50 selectivity in assay [2] (setting [3]) is given as 224. The same molecule displayed an EC50 in assay [2] of no more than 1 nM.
For `[2H]C1([2H])CC[C@@H]2Oc3cc(OC(F)(F)F)ccc3[C@@H]2N1C(=O)c1cc2c(cn1)nc(N)c1cncn12` [Fg-59, (4-aminoimidazo[1,5-a]pyrido[3,4-e]pyrazin-8-yl)((4aS,9bS)-7-(trifluoromethoxy)-3,4,4a,9b-tetrahydrobenzofuro[3,2-b]pyridin-1(2H)-yl-2,2-d2)methanone], in assay [1] (cell viability assay), the CC50 is less than 100 nM. The same molecule gave an EC50 selectivity in assay [2] (setting [4]) of 208. In addition, the EC50 in assay [2] was no more than 1 nM.
In the same order, the values of `C[C@H]1C[C@@H]2Oc3cc(C(F)(F)F)ccc3[C@@H]2N(C(=O)c2cc3c(cn2)nc(N)c2cncn23)C1` (single isomer, unassigned) [Ff-399] are less than 100 nM, 47 and no more than 1 nM.
`Nc1nc2cc(F)c(C(=O)N3CC4CC(C3)c3ccccc34)cc2n2cncc12` [Ff-62, (4-amino-7-fluoroimidazo[1,5-a]quinoxalin-8-yl)(1,2,4,5-tetrahydro-3H-1,5-methanobenzo[d]azepin-3-yl)methanone]: the CC50 in assay [1] (cell viability) was greater than 1000 nM. Further, the EC50 selectivity in assay [2] (setting [3]) stood at 178. Moreover, the EC50 in assay [2] was greater than 5 nM.
In the case of `Cc1ncc2c(N)nc3ccc(C(=O)N(Cc4ccc(C(F)(F)F)cc4F)N(C)C(=O)C4CC4)cc3n12` [Fb-4, 4-amino-N′-(cyclopropanecarbonyl)-N-(2-fluoro-4-(trifluoromethyl)benzyl)-N′,1-dimethylimidazo[1,5-a]quinoxaline-8-carbohydrazide], in assay [1] (cell viability), the CC50 lay within 100 to 1000 nM. Further, the EC50 selectivity in assay [2] (setting [3]) is 249. The 50% effective concentration (EC50) in assay [2] lay in the range of 1 to 5 nM.
Turning to `CC(C)N(Cc1ccc(C(F)(F)F)cn1)C(=O)c1cc2c(cc1F)nc(N)c1cncn12` [Ff-7, 4-amino-7-fluoro-N-isopropyl-N-((5-(trifluoromethyl)pyridin-2-yl)methyl)imidazo[1,5-a]quinoxaline-8-carboxamide], in assay [1] (cell viability), the CC50 was less than 100 nM. Moreover, in assay [2] (setting [3]), the EC50 selectivity turned out to be 33. For the same molecule, the EC50 in assay [2] was no more than 1 nM.
Consider `CCN(Cc1ccc(C(F)(F)F)cc1F)C(=O)c1ccc2nc(N)c3cncn3c2c1` [Ff-25, 4-amino-N-ethyl-N-[[2-fluoro-4-(trifluoromethyl)phenyl]methyl]imidazo[1,5-a]quinoxaline-8-carboxamide], for which the CC50 in assay [1] (cell viability) is less than 100 nM. The molecule also gave an EC50 selectivity in assay [2] (setting [3]) of 312. For the same molecule, the concentration for a half-maximal effect (EC50) in assay [2] lay within 1 to 5 nM.
As to `CN(C(=O)c1cc2c(cc1F)nc(N)c1cncn12)[C@@H]1COc2cc(-n3cnc(C(F)(F)F)c3)ccc21` [Ff-325, (S)-4-amino-7-fluoro-N-methyl-N-(6-(4-(trifluoromethyl)-1H-imidazol-1-yl)-2,3-dihydrobenzofuran-3-yl)imidazo[1,5-a]quinoxaline-8-carboxamide], in assay [1] (cell viability), the CC50 is less than 100 nM. The molecule also had an EC50 selectivity in assay [2] (setting [3]) of 447. In assay [2], this molecule came in with an EC50 of no more than 1 nM.
Take `[2H]C([2H])([2H])c1ncn2c1c(N)nc1cnc(C(=O)N3CCC[C@@H]4Oc5cc(C(F)(F)F)ccc5[C@@H]43)cc12` [Ff-662, (4-amino-3-(methyl-d3)imidazo[1,5-a]pyrido[3,4-e]pyrazin-8-yl)((4aS,9bS)-7-(trifluoromethyl)-3,4,4a,9b-tetrahydrobenzofuro[3,2-b]pyridin-1(2H)-yl)methanone]: the 50% cytotoxic concentration (CC50) in assay [1] (cell viability assay) was less than 100 nM. The molecule also yielded an EC50 selectivity in assay [2] (setting [4]) of 70. The same molecule came in with an EC50 in assay [2] of 1 to 5 nM.

The values are drawn from patent publication US12448388B2, “PRMT5 inhibitors and uses thereof” (Gilead Sciences, Inc., priority 2023, dated 2025).
